Results on 33 compounds are retold here after patent publication US20160039825A1 (BIOGEN MA INC., priority 2013, published 2016).

The test has as its target T1, Human ATX protein (Homo sapiens, UniProt Q13822).
T1 construct: made in house
Nature of the test: Autotaxin (ATX) assay, FRET with FS-3 substrate. The format is biochemical. The following applies: upper bound bins (no greater than 100, 250 or 500 nM); FS-3 2 μM, ATX 1.0 μg/mL. The text has this: ATX (Autotaxin) is a 125 KDa glycoprotein with lysophospholipase D (LPLD) activity that generates the bioactive lipid lysophosphatidic acid (LPA) from lysophosphatidylcholine (LPC). The ATX biochemical assay utilizes a FRET (fluorescence resonance energy transfer) technology platform. The fluorescence signal of FRET substrate FS-3 is quenched due to intra-molecular FRET of a fluorophore to a non-fluorescing quencher (Ferguson, C. G., et al., Org Lett. 2006 May 11; 8(10): 2023-2026, which is incorporated by reference in its entirety). ATX catalyzes the hydrolysis of the substrate which separates the dabsyl quencher from the fluorescein reporter, which becomes fluorescent. The reaction is monitored by a SpectraMax M5 (Molecular Devices, Sunnyvale, Calif.) with at excitation wavelength 485 nm and emission wavelength […].
Fatty acid free-BSA (Sigma A8806): 10 mg/mL in H2O, stored at 4° C.
2×ATX assay buffer: 100 mM Tris, 280 mM NaCl, 10 mM KCl, 2 mM CaCl2, 2 mM MgCl2, pH 7.4.
Human ATX protein: expressed and purified in house. Stored at −80° C.
Substrate FS-3 (Echelon, L-2000): 100 μg in 77.74 μL H2O (1 mM stock), stored at −20° C.
384-well flat bottom plates—Corning #3575.
Compound dilution—All compounds were provided at 10 mM in 100% DMSO. In the first well, 2 μL of 10 mM compound was added to 78 μL of DMSO (1:40 dilution). In subsequent wells 3-fold dilution (total 10 dilutions) were performed.
1×ATX assay buffer was made up with a final concentration of 1 mg/mL fatty acid free-BSA using 2×ATX assay buffer, 10 mg/ml fatty acid free-BSA and ddH2O.
ATX protein was diluted with 1×ATX assay buffer to a concentration of 1.32 μg/mL (1.32×). 38 μL was added per well to the assay plate. The final concentration of ATX in the reaction as 1.0 μg/mL.
2 μL per well of compounds was transferred to provide the desired concentration. The plate was centrifuged, then incubated at room temperature for 30 minutes on the shaker.
FS-3 was diluted with 1×ATX assay buffer to a concentration of FS-3 of 10 μM (5×). Then, 10 μL was added per well to the assay plate. The final concentration of FS-3 in the reaction was 2 μM. The plate was centrifuged. The plate was kept shaking at room temperature for 2 hours. Because FS-3 substrate is light sensitive, plates were kept covered and protected from light.
Fluorescence was measured using SpectraMax M5 (excitation at 485 nm/emission at 538 nm, top read).
On to `CC1CCN(C(=O)c2cc3n(n2)CCCN(C(=O)OCc2cc(Cl)cc(Cl)c2)C3)CC1` [Example 21, 3,5-Dichlorobenzyl 2-(4-methylpiperidine-1-carbonyl)-7,8-dihydro-4H-pyrazolo[1,5-a][1,4]diazepine-5(6H)-carboxylate], for which the concentration for half-maximal inhibition (IC50) (in general, the midpoint of a concentration-inhibition curve) is at most 100 nM.

For the compound `N#Cc1cc2n(n1)CCCN(C(=O)OCc1cc(Cl)cc(Cl)c1)C2` [Example 122, 3,5-Dichlorobenzyl 2-cyano-7,8-dihydro-4H-pyrazolo[1,5-a][1,4]diazepine-5(6H)-carboxylate], the IC50 is at most 250 nM. For the compound `O=C(OCc1cc(Cl)cc(C(F)(F)F)c1)N1CCCn2nc(C(=O)N3CC4CCC3CN4)cc2C1` (stereo not drawn) [Example 197], the IC50 is at most 100 nM. To `CN1CCN(C(=O)c2cc3n(n2)CCCN(C(=O)OCc2cc(C(F)(F)F)cc(C(F)(F)F)c2)C3)C2(CCC2)C1` [Example 233] belongs at most 100 nM. Consider `CCOC(=O)c1nn2c(c1Cl)CN(C(=O)OCc1cc(C(F)(F)F)cc(C(F)(F)F)c1)CC2` [Example 112, 5-(3,5-Bis(trifluoromethyl)benzyl) 2-ethyl 3-chloro-6,7-dihydropyrazolo[1,5-a]pyrazine-2,5(4H)-dicarboxylate], for which the IC50 is at most 250 nM. `CC(c1cc2n(n1)CCCN(C(=O)OCc1cc(C(F)(F)F)cc(C(F)(F)F)c1)C2)N1CCCCC1` (stereo not drawn) [Example 148, 3,5-Bis(trifluoromethyl)benzyl 2-(1-(piperidin-1-yl)ethyl)-7,8-dihydro-4H-pyrazolo[1,5-a][1,4]diazepine-5(6H)-carboxylate] displayed a concentration for half-maximal inhibition (IC50) of at most 100 nM. In the case of `O=C(OCc1cc(Cl)cc(Cl)c1)N1CCCn2nc(C(=O)N3CCN4CCC[C@@H]4C3)cc2C1` [Example 228] it was at most 100 nM; in that of `O=C(OCc1cc(C(F)(F)F)cc(C(F)(F)F)c1)N1CCCn2nc(S(=O)(=O)N3C4CCCC3CCC4)cc2C1` [Example 306], at most 100 nM. Take `O=C(CN1CCOCC1)c1cc2n(n1)CCN(C(=O)OCc1cc(C(F)(F)F)cc(C(F)(F)F)c1)C2` [Example 259]: the IC50 is at most 100 nM. The compound `O=C(OCc1cc(Cl)cc(C(F)(F)F)c1)N1CCCn2nc(C(=O)N3CC4CCNC4C3)cc2C1` (stereo not drawn) [Example 167] displayed an IC50 of at most 100 nM. To `CN1C2CCC1CC(c1cc3n(n1)CCCN(C(=O)OCc1cc(C(F)(F)F)cc(C(F)(F)F)c1)C3)C2` (stereo not drawn) [Example 381] belongs at most 100 nM; to `NC1CN(C(=O)c2cc3n(n2)CCN(C(=O)OCc2cc(C(F)(F)F)cc(C(F)(F)F)c2)C3)C1` [Example 424], at most 100 nM; to `O=C(OCc1cc(C(F)(F)F)cc(C(F)(F)F)c1)N1CCCn2nc(N3CCCCC3=O)cc2C1` [Example 328, 3,5-bis(trifluoromethyl)benzyl 2-(2-oxopiperidin-1-yl)-7,8-dihydro-4H-pyrazolo[1,5-a][1,4]diazepine-5(6H)-carboxylate], at most 100 nM. In the case of `CC1CN(C(=O)OCc2cc(C(F)(F)F)cc(C(F)(F)F)c2)Cc2cc(C(=O)O)nn2C1` (stereo not drawn) [Example 111, 5-(((3,5-Bis(trifluoromethyl)benzyl)oxy)carbonyl)-7-methyl-5,6,7,8-tetrahydro-4H-pyrazolo[1,5-a][1,4]diazepine-2-carboxylic acid] it was at most 100 nM; in that of `CN1CCN(C(=O)c2cc3n(n2)CCCN(C(=O)OCc2cc(C(F)(F)F)cc(C(F)(F)F)c2)C3)C2(CC2)C1` [Example 220], at most 100 nM; in that of `CON(C)C(=O)c1cc2n(n1)CCCN(C(=O)OCc1cc(C(F)(F)F)cc(C(F)(F)F)c1)C2` [Example 144, 3,5-Bis(trifluoromethyl)benzyl 2-(methoxy(methyl)carbamoyl)-7,8-dihydro-4H-pyrazolo[1,5-a][1,4]diazepine-5(6H)-carboxylate], at most 100 nM. Compound `CC(C)(C)C1CC(Nc2cc3n(n2)CCCN(C(=O)OCc2cc(C(F)(F)F)cc(C(F)(F)F)c2)C3)CCN1` (stereo not drawn) [Example 319] had a 50% inhibitory concentration (IC50) of at most 100 nM. To `CC(c1cc2n(n1)CCCN(C(=O)OCc1cc(C(F)(F)F)cc(C(F)(F)F)c1)C2)N1CCC(C(=O)O)CC1` (stereo not drawn) [Example 149, 1-(1-(5-(((3,5-Bis(trifluoromethyl)benzyl)oxy)carbonyl)-5,6,7,8-tetrahydro-4H-pyrazolo[1,5-a][1,4]diazepin-2-yl)ethyl)piperidine-4-carboxylic acid] belongs at most 500 nM; to `O=C(O)C1CC2CCCC(C1)N2C(=O)c1cc2n(n1)CCN(C(=O)CCc1cc(Cl)cc(Cl)c1)C2` (stereo not drawn) [Example 92, 9-(5-(3-(3,5-Dichlorophenyl)propanoyl)-4,5,6,7-tetrahydropyrazolo[1,5-a]pyrazine-2-carbonyl)-9-azabicyclo[3.3.1]nonane-3-carboxylic acid], at most 100 nM; to `O=C(CCl)c1cc2n(n1)CCCN(C(=O)OCc1cc(Cl)cc(C(F)(F)F)c1)C2` [Example 250, 3-Chloro-5-(trifluoromethyl)benzyl 2-(2-chloroacetyl)-7,8-dihydro-4H-pyrazolo[1,5-a][1,4]diazepine-5(6H)-carboxylate], at most 100 nM. To `O=C(OCc1cc(Cl)cc(Cl)c1)N1CCCn2nc(C(=O)N3CCC(O)CC3)cc2C1` [Example 101, 3,5-Dichlorobenzyl 2-(4-hydroxypiperidine-1-carbonyl)-7,8-dihydro-4H-pyrazolo[1,5-a][1,4]diazepine-5(6H)-carboxylate] belongs at most 100 nM. As to `O=C(NC1CC(O)C1)c1cc2n(n1)CCCN(C(=O)OCc1cc(C(F)(F)F)cc(C(F)(F)F)c1)C2` (stereo not drawn) [Example 504], the IC50 was at most 100 nM.

Turning to `CC1(C)CNCCN1C(=O)c1cc2n(n1)CCN(C(=O)OCc1cc(C(F)(F)F)cc(C(F)(F)F)c1)C2` [Example 441], the concentration for half-maximal inhibition (IC50) is at most 100 nM. In the case of `CN1CCC(c2cc3n(n2)CCCN(C(=O)OCc2cc(C(F)(F)F)cc(C(F)(F)F)c2)C3)CC1` [Example 372, 3,5-bis(trifluoromethyl)benzyl 2-(1-methylpiperidin-4-yl)-7,8-dihydro-4H-pyrazolo[1,5-a][1,4]diazepine-5(6H)-carboxylate] it was at most 100 nM. For the compound `O=C(O)c1cc2n(n1)CCCN(C(=O)CCc1cc(Cl)cc(Cl)c1)C2` [Example 83, 5-(3-(3,5-Dichlorophenyl)propanoyl)-5,6,7,8-tetrahydro-4H-pyrazolo[1,5-a][1,4]diazepine-2-carboxylic acid], the half-maximal inhibitory concentration (IC50) is at most 100 nM.

Regarding `CC(NC1=NCCS1)c1cc2n(n1)CCCN(C(=O)OCc1cc(Cl)cc(C(F)(F)F)c1)C2` (stereo not drawn) [Example 156, 3-chloro-5-(trifluoromethyl)benzyl 2-(1-((4,5-dihydrothiazol-2-yl)amino)ethyl)-7,8-dihydro-4H-pyrazolo[1,5-a][1,4]diazepine-5(6H)-carboxylate], the IC50 is at most 100 nM.

With `CC1(C)COCCN1CC(=O)c1cc2n(n1)CCN(C(=O)OCc1cc(C(F)(F)F)cc(C(F)(F)F)c1)C2` [Example 260], the IC50 is at most 100 nM.

Compound `O=C(O)C1CC2CCCC(C1)N2C(=O)c1cc2n(n1)CCCN(C(=O)OCc1cc(C(F)(F)F)cc(C(F)(F)F)c1)C2` (stereo not drawn) [Example 63, 9-(5-((3,5-Bis(trifluoromethyl)benzyloxy)carbonyl)-5,6,7,8-tetrahydro-4H-pyrazolo[1,5-a][1,4]diazepine-2-carbonyl)-9-aza-bicyclo[3.3.1]nonane-3-carboxylic acid] displayed a half-inhibitory concentration (IC50) of at most 100 nM. On to `O=C(O)C1CC2CCCC(C1)N2C(=O)c1cc2n(n1)CCCN(C(=O)OCc1ccc(Cl)cc1)C2` (stereo not drawn) [Example 59, 9-(5-((4-Chlorobenzyloxy)carbonyl)-5,6,7,8-tetrahydro-4H-pyrazolo[1,5-a][1,4]diazepine-2-carbonyl)-9-aza-bicyclo[3.3.1]nonane-3-carboxylic acid], for which the IC50 is at most 100 nM.

Compound `O=C(OCc1cc(C(F)(F)F)cc(C(F)(F)F)c1)N1CCn2nc(-c3cn[nH]c3)cc2C1` [Example 500] came in with an IC50 of at most 100 nM. Take `O=C(OCc1cc(C(F)(F)F)cc(C(F)(F)F)c1)N1CCCn2nc(N3CC4CCC(C3)N4)cc2C1` [Example 344]: the IC50 was at most 250 nM.

Take `CCOC(=O)c1nn2c(c1Br)CN(C(=O)OCc1cc(C(F)(F)F)cc(C(F)(F)F)c1)CCC2` [Example 114, 5-(3,5-Bis(trifluoromethyl)benzyl) 2-ethyl 3-bromo-7,8-dihydro-4H-pyrazolo[1,5-a][1,4]diazepine-2,5(6H)-dicarboxylate]: the 50% inhibitory concentration (IC50) is at most 100 nM.

In turn, `CCC(Nc1cc2n(n1)CCCN(C(=O)OCc1cc(C(F)(F)F)cc(C(F)(F)F)c1)C2)C(=O)O` (stereo not drawn) [Example 362] showed a 50% inhibitory concentration (IC50) of at most 100 nM.
